Results published in US11357782B2, “Treprostinil administration by inhalation” (priority 2006, dated 2022).

Experiments:
[1] = test system: patients with pre-existing gas exchange problems; assay: Ventilation-perfusion matching by multiple inert gas elimination technique (MIGET)
Procedure: The impact of SMI-TRE on ventilation-perfusion matching was assessed in five patients (30 μg TRE, n=2; 45 μg TRE, n=1; 60 μg TRE, n=2) with pre-existing gas exchange problems by use of the multiple inert gas elimination technique (MIGET), see e.g. Wagner PD, Saltzman HA, West JB. Measurement of continuous distributions of ventilation-perfusion ratios: theory. J Appl Physiol. 1974; 36:588-99; Ghofrani HA, Wiedemann R, Rose F, Schermuly RT, Olschewski H, Weissmann N et al. Sildenafil for treatment of lung fibrosis and pulmonary hypertension: a randomised controlled trial. Lancet. 2002; 360:895-900, both incorporated herein in their entirety.
The inhalation of a highly concentrated aerosol can be in theory prone to disturbances of gas exchange because the deposition of even small amounts of aerosol may deliver high doses locally and thereby antagonize the hypoxic pulmonary vasoconstriction in poorly ventilated areas. This would then lead to increased shunt flow or increase of low ventilation/perfusion (V/Q) areas. This question was addressed in five patients with the multiple inert gas elimination technique (MIGET), the gold-standard for intrapulmonary V/Q ratio determination. The MIGET patients were selected for pre-existing gas exchange limitations. […] Etiologies were iPAH (n=1), CTEPH (n=3), pulmonary fibrosis (n=1).

[2] = test system: patients with moderate to severe precapillary pulmonary hypertension; assay: Study i) randomized crossover study of inhaled treprostinil vs inhaled iloprost, right heart catheter; format: in vivo, human; details: for area under the curve (AUC) of PVR decrease: mean±95% confidence interval
Procedure: All inhalations were performed with the […]® ultrasonic nebulizer ([…], Germany). Study i) was a randomized, open-label, single-blind crossover study. […] Patient characteristics and hemodynamic as well as gas exchange parameters are outlined in Table 3. Each patient inhaled both iloprost and treprostinil on the same day during right heart catheter investigation; the drugs were administered consecutively with a one hour interval between the drug applications. One half of the study patients initially inhaled treprostinil and then inhaled iloprost (n=22), while the other half initially inhaled iloprost and then inhaled treprostinil (n=22). Patients were randomized to one of the two groups and blinded as to the study drugs. Drug effects were monitored for 60 minutes after each inhalation.

[3] = Treprostinil plasma concentrations after single inhalation (study ii), LC-MS/MS; details: for Cmax: human, plasma, inhaled
Procedure: Treprostinil plasma concentrations were assessed in study ii) at 10, 15, 30, 60 and 120 minutes after inhalation. Treprostinil quantification was done by Alta Analytical Laboratory (El Dorado Hills, Calif., USA) with a validated liquid chromatography atmospheric-pressure ionization tandem mass spectrometry as previously described Wade M., et al. J. Clin. Pharmacol. 2004; 44:503-9. Mixed venous blood was drawn at the depicted time points (FIG. 11) after inhalation, centrifuged and the plasma frozen at −80° C. until temperature controlled shipping on dry ice.

[4] = Aerosol quality by laser diffractometry (Respimat SMI); format: physicochemical; details: treprostinil-aerosol from Respimat SMI
Source text: Placebo and treprostinil was applied with the Respimat® SMI. […] Eur. Respir.

In the case of CCCCC[C@H](O)CC[C@@H]1[C@H]2Cc3cccc(OCC(=O)[O-])c3C[C@H]2C[C@H]1O.[Na+] [TRE], the shunt flow ([1]; 60 minutes after SMI-TRE, mean±95% confidence interval, n=5) is reported as 8.3±3.4%, the “low V/Q areas or shunt fraction” value ([1]; after inhalation of SMI-TRE, n=5) is reported as “No significant increase” and the “maximal relative reduction of SaO2” value ([1]; five MIGET patients, compared to baseline values) is reported as −3.8±1.5%. The “area under the curve (AUC) of PVR decrease” value (“area … of PVR decrease” for short) ([2]; 7.5 μg inhaled in 6 minutes, start of inhalation until 60 min) was −12.6±7.0%, the “area … of PVR decrease” value ([2]; 15 μg inhaled in 6 minutes, until 60 min) was −13.3±3.2% and the “area … of PVR decrease” value ([2]; 15 TRE inhaled in 3 minutes, until 60 min) was −13.6±4.3%. The “PVR values after 60 min” value ([2]; 60 min after inhalation) was “had not yet returned to baseline”, the gas exchange ([2]; after inhalation) was “did not affect gas exchange” and the “systemic arterial pressure (SAP)” value ([2]; after inhalation) was “unaffected”. For the same compound, the “side effects (transient flush, headache)” value ([2]; iloprost 7.5 μg, treprostinil 7.5-15 μg) was “not observed”, the “maximum effect on PVR” value ([2]; iloprost vs treprostinil, pooled) was “comparable” and the taste ([2]; metacresol-containing TRE solution) was “Bad taste was reported by most of the patients”. For the same compound, the “time to maximum effect on PVR after inhalation” value ([2]; pooled n=44, mean±SEM, p<0.0001) was 18 ± 2 min, the “time of peak plasma concentrations after inhalation” value ([3]; 30-120 μg, 6 min inhalation) was 10 to 15 min and the Cmax ([3]; 30 ug) was 0.65 ± 0.28 ng/mL. The Cmax ([3]; 60 ug) was 1.59 ± 0.17 ng/mL, the Cmax ([3]; 90 ug) was 1.74 ng/mL and the Cmax ([3]; 120 ug) was 3.51 ± 1.04 ng/mL. The aerosol particles mass median aerodynamic diameter [4] was 4 to 5 µm.
